Test results as given in patent US10710988B2, “Piperazine derivative” (Astellas Pharma Inc., priority 2016, dated 2020).
Like-named read-outs stand apart in the source and are kept apart here.

Legend:
[1] = molecular target: T1, human MC1 receptor (Homo sapiens, UniProt Q01726); test: Human MC1 receptor activation, cAMP production in cells transiently expressing the receptor; format: cell-based; conditions: FreeStyle 293-F cells expressing human MC1 receptor, α-MSH maximum = 100%
T1 construct: expressed in transfected cells; host or cells: FreeStyle 293-F cells (transient, electroporation)
From the text: (1) Construction of Human MC Receptor-Expressing Vector
A human MC4 receptor gene (GenBank Accession No.: NM_005912.2), a human MC1 receptor gene (GenBank Accession No.: NM_002386.3), or a human MC3 receptor gene (GenBank Accession No.: NM_019888.3) was introduced into an expression vector pcDNA™ 3.1N/V5-His TOPO (registered trademark) (Thermo Fisher Scientific Inc).
(2) Construction of Cells Transiently Expressing Human MC Receptor
An expression vector for a human MC4, MC1, or MC3 receptor was introduced into FreeStyle™ 293-F cells (Thermo Fisher Scientific Inc., product number: R790-07). For the introduction, electroporation was employed. That is, 1×10^7 FreeStyle™ 293-F cells were suspended in 80 μL of an Electroporation Buffer (Thermo Fisher Scientific Inc., product number: B201-100), and 20 μg of the expression vector was added thereto. The resultant was put into a cuvette (OC-100 Processing Assembly, MaxCyte, Inc.) and electroporated with MaxCyte STX (registered trademark) (MaxCyte, Inc.). The cells were cultured for a day, suspended in a Cell Banker (registered trademark) 1 (TAKARA BIO INC. or JUJI FIELD Inc., product number: BLC-1), and stored frozen until they were used.
(3) Measurement of Amount of cAMP Production
Measurement was carried out by using a LANCE (registered trademark) Ultra cAMP Kit (PerkinElmer, Inc.) in accordance with the attached instructions. That is, after dissolution in DMSO, the test compound (a final concentration of 1 pM to 30 μM) diluted with an assay buffer (Hank's balanced salt solution, 5 mM 4-(2-hydroxyethyl)-1-piperazineethanesulfonic acid (HEPES), 0.5 mM 3-isobutyl-1-methylxanthine (IBMX), 0.1% bovine serum albumin, pH 7.4), or α-MSH (Bachem Inc., a final concentration of 1 pM to 30 μM) was added to OptiPlate-384 (PerkinElmer, Inc.). Furthermore, the suspension of the cells transiently expressing the human MC4, MC1, or MC3 receptor prepared using the assay buffer was added thereto at 1,000 cells/well, and then left to stand at room temperature for about 1 hour. Thereafter, an Eu-cAMP tracer solution and an ULight™-anti-cAMP solution were added thereto, and then the resulting solution was left to stand at room temperature for about 1 hour. The amount of cAMP was calculated using EnVision (registered trademark) (PerkinElmer Inc.).
For the agonistic activity, the efficacy (EC50 (μM)) was calculated by a non-linear regression method with a Sigmoid-Emax model, by defining the maximum reaction using α-MSH as 100% and the reaction using the vehicle alone as 0%, respectively.

[2] = tested on: phenylephrine-induced urethral pressure increase; test: Effect on rat urethral pressure (phenylephrine-induced urethral pressure increase); format: in vivo; conditions: read-out: ID40
Experimental: The present Test Example was performed by partially modifying the technique reported as a testing system for evaluating a urethral resistance-reducing action (European Journal of Pharmacology, 679, 127-131 (2012)). Male Wistar rats (Charles River Laboratories Japan, Inc.) were anesthetized with urethane (1.2 g/kg ip), and immobilized in a supine position. The midline incision was performed in the lower abdominal portion such that the bladder was exposed. The bladder apex was incised, and from the incision site, a microchip pressure transducer catheter (3.5 Fr, Millar, Inc) was inserted and implanted into the inside of the urethra. In addition, a cannula for drug administration was implanted into the femoral vein. After the urethral pressure was stabilized, phenylephrine hydrochloride (Sigma-Aldrich Co. LLC., 30 μg/kg) was intravenously administered to induce an increase in the urethral pressure. At an interval of about 30 minutes, the above operation was repeated twice or more so as to confirm the stability of the phenylephrine hydrochloride-induced urethral pressure increasing reaction. Then, a test compound (dissolved in 20% dimethyl acetamide, 10% Cremophor (registered trademark), and 70% physiological saline) was intravenously administered, and after 5 minutes, phenylephrine hydrochloride was administered. The procedure of the administration of the test compound and the administration of phenylephrine hydrochloride was repeated at an interval of about 30 minutes, and 3 to 5 doses of the test compound was evaluated (the test compound was administered at increasing doses). The obtained data was introduced into a personal computer through PowerLab (registered trademark) (ADInstruments, Inc.) and analyzed using LabChart (registered trademark) (ADInstruments, Inc.). For the evaluation, the value (AUC value, mmHg-s) of the area under the urethral pressure for one minute before and after administration of phenylephrine hydrochloride was determined to calculate the difference (ΔAUC value) between the AUC value before the administration of phenylephrine hydrochloride and the AUC value after the administration of phenylephrine hydrochloride. The ΔAUC value obtained before administering the test compound was regarded as being 100%, and based on this, the ratio (reaction rate) of the ΔAUC value of the test compound at each dose was calculated. The dose at which the obtained reaction rate became 60% (40% as an inhibition rate) was defined as ID40, and the ID40 values of the test compounds were calculated by non-linear regression.

[3] = male Wistar rats, urethane anesthesia, intravenous, dose giving 40% inhibition of phenylephrine-induced urethral pressure ΔAUC

T1 sequence (Q01726 whole entry): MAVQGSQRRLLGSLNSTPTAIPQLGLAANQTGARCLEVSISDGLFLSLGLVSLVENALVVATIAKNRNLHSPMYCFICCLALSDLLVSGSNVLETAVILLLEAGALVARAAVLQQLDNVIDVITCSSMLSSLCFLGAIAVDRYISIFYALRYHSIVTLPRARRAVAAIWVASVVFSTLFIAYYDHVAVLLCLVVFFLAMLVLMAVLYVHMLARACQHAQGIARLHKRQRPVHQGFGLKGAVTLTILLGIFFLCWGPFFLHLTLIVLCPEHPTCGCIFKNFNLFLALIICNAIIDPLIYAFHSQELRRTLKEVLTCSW

Structure (SMILES) | EC50 [1] [nM] | ED40 [2, 3] [mg/kg] | ED40 ([2]; iv) [mg/kg]
CC(=O)N[C@@H](CC(C)(C)C)C(=O)N1C[C@H](C)N(C(=O)[C@@H]2CN(C(C)(C)C)C[C@H]2c2ccc(F)cc2F)C[C@H]1C.Cl [Example 4, N-{(2S)-1-[(2R,5S)-4-{[(3 S,4R)-1-tert-butyl-4-(2,4-difluorophenyl)pyrrolidin-3-yl]carbonyl}-2,5-dimethylpiperazin-1-yl]-4,4-dimethyl-1-oxopentan-2-yl}acetamide monohydrochloride] | 1000 | 11 | –
CC(=O)N[C@@H](CC(C)C)C(=O)N1CCN(C(=O)[C@@H]2CN(C(C)(C)C)C[C@H]2c2ccc(Cl)cc2F)C[C@H]1C [Example 5] | 710 | – | 25
CC(=O)N[C@H](C(=O)N1CCN(C(=O)[C@@H]2CN(C(C)(C)C)C[C@H]2c2ccc(F)cc2F)[C@@H](C)C1)C1CCCCC1.Cl [Example 6, N-{(1S)-2-[(3S)-4-{[(3S,4R)-1-tert-butyl-4-(2,4-difluorophenyl)pyrrolidin-3-yl]carbonyl}-3-methylpiperazin-1-yl]-1-cyclohexyl-2-oxoethyl}acetamide monohydrochloride] | 2600 | 46 | –

Second part, led by results:

EC50 [1] [nM] | Structure (SMILES) | ED40 [2, 3] [mg/kg] | ED40 ([2]; iv) [mg/kg]
1700 | CC(=O)N[C@@H](CC(C)(C)C)C(=O)N1CCN(C(=O)[C@@H]2CN(C(C)(C)C)C[C@H]2c2ccc(F)cc2F)[C@@H](C)C1.Cl [Example 8] | 15 | –
1600 | CC(=O)N[C@@H](CC(C)(C)C)C(=O)N1C[C@H](C)N(C(=O)C2CN(C(C)(C)C)CC2c2ccc(F)cc2)C[C@H]1C.Cl (stereo partly shown) [Example 11] | 28 | –
